Legend:
C. elegans [1] = test: Nematicidal activity of methyl ester, salt and free fatty acid emulsions vs. C. elegans N2s (Table 3); format: in vivo, Caenorhabditis elegans
Description: Nematicidal Activity of Single Fatty Acid Methyl Ester, Salt and Free Fatty Acid Emulsions Against Caenorhabditis elegans […] and Dauers

[2] = test system: everted hamster jejunal and ileal segments; settings: Gaginella et al. (1975); cited from earlier work
C. elegans dauers = test: Nematicidal activity of methyl ester, salt and free fatty acid emulsions vs. C. elegans dauers (Table 4); format: in vivo, Caenorhabditis elegans
[3] = test system: isolated intestinal epithelial cells; settings: Gaginella et al. (1977); cited from earlier work
[4] = test system: wide spectrum of divergent nematode genera; test: Summary of Table 6: free-living, animal parasitic and plant parasitic nematodes; format: in vivo; settings: concentrations of 0.1% and 0.01%
Description: (§1) Briefly, the indicated fatty acid emulsions were added to nematodes in wells of a 24-well plate and rapidly mixed by swirling. […] Results shown are mean % values obtained from multiple independent experiments

C. elegans [5] = test: Nematicidal activity of fatty acid methyl ester emulsions, nematode spectrum (Table 6); format: in vivo, Caenorhabditis elegans; settings: C. elegans mixed stage
Description: as §1
(§2) The Caenorhabditis elegans were mixed stage populations. Similar effects were seen on several other free-living nematode species. The Parastrongyloides trichosuri (parasite of Australian bushtail possum) were dauer-like infective 3rd stage larva. Similar effects are also seen against free-living stages. The Meloidogyne incognita and Meloidogyne javanica (root knot nematode) were 2nd stage juveniles (dauer-like infective stage). The Heterodera glycines (soybean cyst nematode) were 2nd stage juveniles (dauer-like infective stage). Finally, the Pratylenchus scribneri (corn lesion nematode) were mixed stage populations.

M. javanica [6] = test: as above; format: in vivo, Meloidogyne javanica; settings: M. javanica 2nd stage juveniles, head 24 hr, b171 48 hours
Description: as §1, §2

tomato seedlings = test: Phytotoxicity evaluation of fatty acid methyl esters on tomato seedlings; format: in vivo; settings: 250 μl of 1% emulsion at stem-media interface of two-week seedlings
Description: Sterilized tomato seeds were germinated in magenta jars containing Gamborg's agar media. After two weeks of growth, seedlings were treated with 250 μl of 1% fatty acid methyl ester emulsion (nonanoic acid, ricinoleic acid, ricinelaidic acid, oleic acid, or a control emulsion lacking any fatty acid), applied directly to the stem-media interface. Tomato seedlings were scored at various times after application of emulsions.

P. trichosuri = test: Nematicidal activity of fatty acid methyl ester emulsions, nematode spectrum (Table 6); format: in vivo, Parastrongyloides trichosuri; settings: P. trichosuri infective 3rd stage larva
Description: as §1, §2

M. incognita [7] = test: Nematicidal activity of fatty acid methyl ester emulsions against root knot nematode J2 larvae (Table 5); format: in vivo; settings: 0.1% emulsion; 48 hours incubation, counted about 24 hours after transfer to plates
Description: (§3) M. incognita and M. javanica were prepared from tomato roots. The roots were bleached and the debris was separated from the J2 larvae and eggs by filtration followed by sucrose density gradient centrifugation. Eggs were hatched over 4 days at 15° C. and the J2 larvae were collected by passage though a filter, followed by centrifugation.
(§4) Nematodes and emulsions were incubated with shaking at room temperature for 48 hours. The contents of each well were transferred to a small spot on individual NGM plates lacking bacteria. About 24 hours after the transfer to plates, worms on and off the inoculation spot were counted as not viable or viable, respectively. Worms were considered viable if they had crawled away from the inoculation spot, or if they were moving. Worms were considered non-viable if they remained at the inoculation spot.

M. javanica [8] = test: as above; format: in vivo; settings: 0.1% emulsion; 48 hours incubation, counted about 24 hours after transfer to plates
Description: as §3, §4

M. incognita [9] = test: Nematicidal activity of fatty acid methyl ester emulsions, nematode spectrum (Table 6); format: in vivo, Meloidogyne incognita; settings: M. incognita 2nd stage juveniles, head 24 hr, b171 48 hours
Description: as §1, §2

C. elegans [10] = test: Nematicidal activity of fatty acid methyl ester emulsions against C. elegans (Table 2)
H. glycines = test: Nematicidal activity of fatty acid methyl ester emulsions, nematode spectrum (Table 6); format: in vivo, Heterodera glycines; settings: H. glycines 2nd stage juveniles, head 24 hr, b171 48 hours
Description: as §1, §2

P. scribneri = test: as above; format: in vivo, Pratylenchus scribneri; settings: P. scribneri mixed stage
Description: as §1, §2

L4 and adult C. elegans = settings: Stadler and coworkers; cited from earlier work
Panagrellus redivivus = settings: 100 μg/mL over 24 hours; Momin & Nair (2002); cited from earlier work
Caenorhabditis elegans = settings: 100 μg/mL over 24 hours; Momin & Nair (2002); cited from earlier work

## CCCCCC[C@@H](O)C/C=C\CCCCCCCC(=O)O [R free acid, ricinoleic acid]
C. elegans [1]; 0.001% emulsion
  worm death: <5%
C. elegans [1]; 0.01% emulsion
  worm death: 50%
C. elegans [1]; 0.1% emulsion
  worm death: 95%
[2]
  effect on water and electrolyte absorption: inhibitory effect
C. elegans dauers; 0.01% emulsion
  worm death: 75%
C. elegans dauers; 0.1% emulsion
  worm death: 90%
[3]
  cytotoxicity: cytotoxic

## CCCCCC[C@@H](O)C/C=C\CCCCCCCC(=O)OC [Ricinoleic Acid (C18-methyl ester), ricinoleic acid methyl ester]
[4]
  nematicidal activity: strongly nematicidal
C. elegans [5]; 0.001% solution
  % Worm Death (24 hr): 30%
C. elegans [5]; 0.01% solution
  % Worm Death (24 hr): 50%
C. elegans [5]; 0.1% solution
  % Worm Death (24 hr): 90%
M. javanica [6]; 0.01% solution
  % Worm Death (24 hr): 5%
M. javanica [6]; 0.1% solution
  % Worm Death (24 hr): 60%
Tomato seedlings
  phytotoxic effects on tomato seedlings: low phytotoxicity
C. elegans [1]; 0.001% emulsion
  worm death: 20%
C. elegans [1]; 0.01% emulsion
  worm death: 40%
C. elegans [1]; 0.1% emulsion
  worm death: 90%
P. trichosuri; 0.01% solution
  % Worm Death (24 hr): ~60%
P. trichosuri; 0.1% solution
  % Worm Death (24 hr): ~50%
M. incognita [7]
  M. incognita (% not viable): 95%
M. javanica [8]
  M. javanica (% not viable): 60%
M. incognita [9]; 0.01% solution
  % Worm Death (24 hr): 83%
M. incognita [9]; 0.1% solution
  % Worm Death (24 hr): 95%
C. elegans [10]; 0.003% emulsion
  Percentage of Worm Death 1 hr: 40%
  Percentage of Worm Death 6 hr: 40%
  Percentage of Worm Death 24 hr: 40%
C. elegans [10]; 0.1% emulsion
  Percentage of Worm Death 1 hr: 80%
  Percentage of Worm Death 6 hr: 80%
  Percentage of Worm Death 24 hr: 90%
C. elegans [10]; concentration of 0.1%
  nematicidal activity: strongly nematicidal
C. elegans [10]; emulsion, Table 2
  time before strong killing effects are apparent: up to 30 minutes
[2]
  effect on water and electrolyte absorption: ineffective
H. glycines; 0.001% solution
  % Worm Death (24 hr): ~40%
H. glycines; 0.01% solution
  % Worm Death (24 hr): ~60%
H. glycines; 0.1% solution
  % Worm Death (24 hr): ~60%
C. elegans dauers; 0.01% emulsion
  worm death: 30%
C. elegans dauers; 0.1% emulsion
  worm death: 70%
P. scribneri; 0.01% solution
  % Worm Death (24 hr): <20%
P. scribneri; 0.1% solution
  % Worm Death (24 hr): <20%

## CCCCCCCC/C=C\CCCCCCCC(=O)O [oleic acid]
L4 and adult C. elegans
  LD50: 25 µg/mL
  LD90: 100 µg/mL
Panagrellus redivivus
  nematicidal activity: not nematicidal
Caenorhabditis elegans
  nematicidal activity: not nematicidal
